# Test results as given in BindingDB's records for doi:10.1021/jm00048a016 (National Cancer Institute-Frederick, 1994).
# Target: Gastrin/cholecystokinin type B receptor (Cavia porcellus)
# Test: Tested for the 50% inhibition level against [125I]- gastrin binding to guinea pig gastric glands
row,Compound,EC50 [nM]
1,CSCC[C@H](NC(=O)[C@H](Cc1c[nH]c2ccccc12)NC(=O)CCNC(=O)CCC(=O)N(Cc1ccccc1)N=NCCCl)C(=O)N[C@@H](CC(=O)O)C(=O)N[C@@H](Cc1ccccc1)C(N)=O [CBS-5],80
2,CSCC[C@H](NC(=O)[C@H](Cc1c[nH]c2ccccc12)NC(=O)CCC(=O)N(Cc1ccccc1)N=NCCCl)C(=O)N[C@@H](CC(=O)O)C(=O)N[C@@H](Cc1ccccc1)C(N)=O [CBS-4],130
